Assay results from US20170224819A1, “Therapeutic Combinations of a BTK Inhibitor, a PI3K Inhibitor, a JAK-2 Inhibitor, and/or a CDK 4/6 Inhibitor” (Acerta Pharma B.V., priority 2014, published 2017).
“Also recorded” adds a separate entry of the source.

Assays:
[1] = tested on: KPC derived mouse pancreatic cancer cells; experiment: KPC derived pancreatic cancer cells injected into the pancreas, Formula (XVIII) and/or gemcitabine; type: in vivo; details: 15 mg/kg/BID orally
Description: In this study, KPC derived mouse pancreatic cancer cells (KrasG12D; Trp53R172H; Pdxl-Cre) were injected into the pancreases.
Single cell suspensions from tumor samples. Mouse tumor tissue was collected and stored in PBS/0.1% soybean trypsin inhibitor prior to enzymatic dissociation. Samples were finely minced with a scissors and mouse tissue was transferred into DMEM containing 1.0 mg/ml collagenase IV (Gibco), 0.1% soybean trypsin inhibitor, and 50 U/ml DNase (Roche) and incubated at 37° C. for 30 minutes with constant stirring while human tissue was digested in 2.0 mg/ml collagenase IV, 1.0 mg/ml hyluronidase, 0.1% soybean trypsin inhibitor, and 50 U/ml DNase for 45 minutes. Suspensions were filtered through a 100 micron filter and washed with FACS buffer (PBS/0.5% BSA/2.0 mM EDTA) prior to staining. Two million total cells were stained with antibodies as indicated. Intracellular detection of FoxP3 was achieved following permeabilization with BD Perm Buffer III (BD Biosciences) and eBioscience Fix/Perm respectively. Following surface staining, samples were acquired on a BD Fortessa and analyzed using FlowJo (Treestar) software.

EGFR = EGFR (Homo sapiens, UniProt P00533); experiment: EGF-induced EGFR phosphorylation in A431 cells (phosphoflow); details: 10 μM; A431 human epidermoid cancer cell line
Sequence of EGFR (P00533 25-1210): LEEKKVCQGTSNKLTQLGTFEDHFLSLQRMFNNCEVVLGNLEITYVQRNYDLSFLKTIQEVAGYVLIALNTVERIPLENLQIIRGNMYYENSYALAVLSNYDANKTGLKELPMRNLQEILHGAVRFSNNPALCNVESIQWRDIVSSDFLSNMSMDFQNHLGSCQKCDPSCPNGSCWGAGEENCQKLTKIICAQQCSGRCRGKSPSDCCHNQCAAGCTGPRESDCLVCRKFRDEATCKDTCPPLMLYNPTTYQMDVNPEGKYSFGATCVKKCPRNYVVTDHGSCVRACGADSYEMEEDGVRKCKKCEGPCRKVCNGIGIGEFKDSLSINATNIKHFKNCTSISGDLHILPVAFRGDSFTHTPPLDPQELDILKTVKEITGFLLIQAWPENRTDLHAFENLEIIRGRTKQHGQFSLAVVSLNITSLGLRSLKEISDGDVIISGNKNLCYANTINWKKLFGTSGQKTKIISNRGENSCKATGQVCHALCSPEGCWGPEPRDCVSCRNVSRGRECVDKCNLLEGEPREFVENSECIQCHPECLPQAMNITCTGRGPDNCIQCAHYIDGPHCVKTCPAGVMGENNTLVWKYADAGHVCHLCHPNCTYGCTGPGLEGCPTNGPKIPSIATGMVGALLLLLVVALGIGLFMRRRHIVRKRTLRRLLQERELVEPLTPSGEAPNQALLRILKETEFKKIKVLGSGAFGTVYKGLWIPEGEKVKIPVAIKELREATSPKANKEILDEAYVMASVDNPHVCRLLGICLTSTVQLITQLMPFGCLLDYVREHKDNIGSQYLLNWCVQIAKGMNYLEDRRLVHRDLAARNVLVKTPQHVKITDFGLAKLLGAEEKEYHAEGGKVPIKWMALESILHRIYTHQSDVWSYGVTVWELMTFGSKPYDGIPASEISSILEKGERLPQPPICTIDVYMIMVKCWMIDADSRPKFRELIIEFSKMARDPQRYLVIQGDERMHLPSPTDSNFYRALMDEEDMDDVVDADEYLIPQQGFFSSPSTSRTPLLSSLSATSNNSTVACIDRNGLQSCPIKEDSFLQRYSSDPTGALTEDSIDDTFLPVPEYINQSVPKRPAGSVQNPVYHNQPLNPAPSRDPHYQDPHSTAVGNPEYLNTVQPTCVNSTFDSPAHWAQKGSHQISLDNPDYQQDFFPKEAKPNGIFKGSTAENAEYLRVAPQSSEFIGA

[2] = In vitro metabolism in hepatocytes with 14C-labeled compound; type: in vitro ADME, mouse, rat, dog, rabbit, monkey, and human
[3] = Brain PK experiments (brain and CSF versus plasma); type: in vivo, Sprague-Dawley rats; details: rats, 5 or 30 mg/kg/day
Description: Two vehicle treated rats were sacrificed on each sampling day for comparison.

[4] = tested on: human platelet-mediated thrombosis; experiment: In vivo human thrombus formation in the VWF HA1 mice model (laser-induced injury); details: pretreated human platelets
Description: Constitutive or aberrant activation of the BCR signaling cascade has been implicated in the propagation and maintenance of a variety of B cell malignancies. […] J. Haematol. […] In fact, both Tec and BTK play an important role in the regulation of phospholipase Cγ2 (PLCγ2) downstream of the collagen receptor glycoprotein VI (GPVI) in human platelets. […] Biotechnol.
Injury to the vessel wall of arterioles ([…] diameter) was performed using a pulsed nitrogen dye laser (440 nm, Photonic Instruments) applied through a 20× water-immersion Olympus objective (LUMPlanFl, 0.5 numerical aperature (NA)) of a Zeiss Axiotech vario microscope. […] The extent of thrombus formation was assessed for 2 minutes after injury and the area (μm^2) of coverage determined (Image IQ, Andor Technology).
The BTK inhibitor-treated human platelets were fluorescently labeled and infused continuously through a catheter inserted into the femoral artery.

ID8 ovarian cancer [5] = experiment: ID8 syngeneic orthotropic ovarian cancer murine model; type: in vivo, mice; details: 15 mg/kg/BID orally
Description: Human ovarian cancer models, including the ID8 syngeneic orthotropic ovarian cancer model and other animal models, are described in Fong and Kakar, J. Ovarian Res. 2009, 2, 12; Greenaway et al., Gynecol. Oncol. 2008, 108, 385-94; Urzua et al., Tumour Biol. 2005, 26, 236-44; Janat-Amsbury et al., Anticancer Res. 2006, 26, 3223-28; Janat-Amsbury et al., Anticancer Res. 2006, 26, 2785-89. […] The results of the study are shown in FIG. 108, FIG. 109, FIG. 110, FIG. 111, FIG. 112, FIG. 113, FIG. 114, and FIG. 115.

[6] = Study of respiratory function; details: rats, doses through 300 mg/kg
NK cells = experiment: Antibody-dependent NK cell cytokine (IFN-γ) secretion, ELISA; type: cell-based, human; details: 1 μM, HER18 target cells
Description: Cytokine secretion was determined as follows. […] NK cells from healthy donors were enriched as described above and then added to the target cells and incubated for 4 hours at 37° C. Triplicate cultures were performed on NK cells from donors. After incubation, supernatants were harvested, centrifuged briefly, and then analyzed for interferon-γ using an enzyme-linked immunosorbent assay (ELISA) (R&D Systems, Minneapolis, Minn., USA).

[7] = Glutathione binding and depletion in vitro; type: in vitro ADME
CYP3A4 = CYP3A4 (Homo sapiens, UniProt P08684); experiment: In vitro CYP metabolism and CYP interaction studies; type: in vitro ADME
Sequence of CYP3A4 (P08684 whole entry): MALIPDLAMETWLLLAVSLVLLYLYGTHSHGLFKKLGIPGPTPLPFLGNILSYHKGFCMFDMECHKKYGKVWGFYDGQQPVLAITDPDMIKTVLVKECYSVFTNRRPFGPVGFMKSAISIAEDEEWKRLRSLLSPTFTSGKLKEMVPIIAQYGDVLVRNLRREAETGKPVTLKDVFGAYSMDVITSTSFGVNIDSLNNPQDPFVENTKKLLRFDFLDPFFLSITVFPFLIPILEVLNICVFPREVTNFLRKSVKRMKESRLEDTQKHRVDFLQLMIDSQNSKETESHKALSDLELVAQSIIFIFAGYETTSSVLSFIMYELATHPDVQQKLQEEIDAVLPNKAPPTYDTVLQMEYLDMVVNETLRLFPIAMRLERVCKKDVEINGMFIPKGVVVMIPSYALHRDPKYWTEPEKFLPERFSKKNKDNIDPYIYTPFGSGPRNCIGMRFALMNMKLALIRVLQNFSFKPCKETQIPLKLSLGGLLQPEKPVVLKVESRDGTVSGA

[8] = tested on: orthotopic pancreatic cancer (KPC derived cells); experiment: Orthotopic pancreatic cancer model (KPC cell line implanted in C57BL/6 mice); type: in vivo; details: orthotopic PDA model, oral 15 mg/kg
Description: Cell line derived from KrasG12D; Trp53R172H; Pdxl-Cre (KPC) mice were orthotopically implantated into the head of the pancreas after 35 passages. Based on the mice background from where the cell lines were generated, 1×10^6 cells were injected in C57BL/6 mice. Throughout the experiment, animals were provided with food and water ad libitum and subjected to a 12-h dark/light cycle. Animal studies were performed in accordance with the U.S. Public Health Service “Guidelines for the Care and Use of Laboratory Animals” (IACUC). After euthanization, pancreatic tumors were dissected out, weighed and single cell suspensions were prepared for flow cytometry analysis.

[9] = tested on: spontaneous pancreatic tumors (KPC mice); experiment: KPC mouse model of advanced pancreatic cancer; type: in vivo; details: for Tumor volume, average: N=6
Description: The KPC mouse model recapitulates many of the molecular, histopathologic, and clinical features of human disease (Westphalen and Olive, Cancer J. 2012, 18, 502-510). Combination therapy with gemcitabine was also evaluated in this model. Mice were enrolled after identification of spontaneously appearing tumors in the pancreas that were >100 mm^3 (as assessed by high-resolution ultrasonography).

ID8 ovarian cancer [10] = experiment: ID8 syngeneic orthotropic ovarian cancer model; type: in vivo, mice
Description: FIG. 108 illustrates the effects of vehicle on flux at two timepoints, as a control for comparison with FIG. 109, in the ID8 syngeneic orthotropic ovarian cancer model.

[11] = tested on: NSCLC (KrasLA2) lung tumors; experiment: Genetic tumor model of NSCLC (KrasLA2); type: in vivo, mice; details: 15 mg/kg
Description: The model is designed to have sporadic expression in single cells of G12D mutant Kras off its own promoter triggered by spontaneous intrachromosomal recombination. Johnson, et al. Nature 2001, 410, 1111-16. While the mutant Kras protein is expressed in a few cells in all tissues, tumor development is seen only in the lung at high penetrance.

SMILES: CC#CC(=O)N1CCC[C@H]1c1nc(-c2ccc(C(=O)Nc3ccccn3)cc2)c2c(N)nccn12 [Formula (XVIII), (S)-4-(8-amino-3-(1-(but-2-ynoyl)pyrrolidin-2-yl)imidazo[1,5-a]pyrazin-1-yl)-N-(pyridin-2-yl)benzamide]
- Tumor burden [1]: reduction in tumor burden
- Inhibition of in vitro EGFR phosphorylation (EGFR): no inhibition
- Unique human metabolite ([2]; hepatocytes): No unique human metabolite was identified
- Metabolites in hepatocytes ([2]; mouse, rat, dog, rabbit, monkey, and human hepatocytes): two mono-oxidized metabolites and a glutathione conjugate
- Levels in brain and CSF samples [3]: low but detectable levels
- Effect on human platelet-mediated thrombus formation [4]: does not interfere with thrombus formation; also recorded: no significant effect on human platelet-mediated thrombus formation
- CD8+ T cells (ID8 ovarian cancer [5]): increase in CD8^+ T cells
- ID8 ovarian cancer growth (ID8 ovarian cancer [5]): impairs ID8 ovarian cancer growth
- Immunosuppressive B cells (ID8 ovarian cancer [5]): significant reduction in immunosuppressive B cells
- Immunosuppressive tumor-associated lymphocytes (ID8 ovarian cancer [5]): significant reduction in immunosuppressive tumor-associated lymphocytes
- Tumor associated Tregs (ID8 ovarian cancer [5]): significant reduction in immunosuppressive tumor associated Tregs
- Respiratory function [6]: no treatment-related adverse effects
- Inhibition of trastuzumab-stimulated NK cell cytokine release (NK cells): no inhibitory effect
- Glutathione binding and depletion [7]: binds to glutathione but does not deplete glutathione in vitro
- CYP catalyzed loss of parent drug (CYP3A4; in vitro): metabolized by CYP3A4
- CYP drug-drug interaction potential (CYP3A4; nonclinical CYP interaction studies): very unlikely to cause clinical drug-drug interactions
- Immature myeloid infiltrate (MDSCs) [8]: decreased immature myeloid infiltrate
- Immunosuppressive Tregs [8]: reduced the number of immunosuppressive Tregs
- Tumor associated macrophages [8]: reduced the number of tumor associated macrophages
- Tumor burden [8]: significantly reduced tumor burden
- CD8+ cells in tumor tissues ([9]; 15 mg/kg BID orally): significant increase in CD8^+ cells
- Immunosuppressive TAMs, MDSCs and Tregs in tumor tissues ([9]; 15 mg/kg BID orally): significantly reduced
- Pancreatic cancer growth and animal survival ([9]; 15 mg/kg BID orally): substantially slowed pancreatic cancer growth and increased animal survival
- Survival ([9]; day 14): 6/6
- Survival ([9]; day 28): 5/6
- Tumor volume, average ([9]; day 28, 15 mg/kg BID orally): 272 mm^3
- Tumor volume, average ([9]; predose, 15 mg/kg BID orally): 165 mm^3
- immunosuppressive tumor associated Tregs (ID8 ovarian cancer [10]; FIG. 114): significant reduction
- CD8+ T cells (ID8 ovarian cancer [10]; FIG. 115): increase
- ID8 ovarian cancer growth (ID8 ovarian cancer [10]; syngeneic murine model, in comparison to vehicle, FIG. 111): impairs
- immunosuppressive tumor associated lymphocytes (ID8 ovarian cancer [10]; tumor-bearing mice, in comparison to vehicle, FIG. 110): significant reduction
- total B cells (ID8 ovarian cancer [10]; tumor-bearing mice, FIG. 112): significant reduction
- B regulatory cells (Bregs) (ID8 ovarian cancer [10]; tumor-bearing mice, FIG. 113): significant reduction
- Number of tumors [11]: fewer overall tumors
- Tumor volumes [11]: significant decrease in tumor volumes versus vehicle
